The target in one assay is M^pro protein (SARS-CoV-2 main protease) (Severe acute respiratory syndrome coronavirus 2, UniProt P0DTD1). Description: FRET-based in vitro enzymatic inhibition assay. It is filed as biochemical.
Details: not given
`Cc1cn(-c2cc(NC(=O)c3ccc(C)c(Nc4nccc(-c5cccnc5)n4)c3)cc(C(F)(F)F)c2)cn1` [Nilotinib, reference compound] showed a half-inhibitory concentration (IC50) of 19.9 ± 1.27 µM.

The assay is the same for the next values; noted with them: 0.2 μM M^pro, 20 μM substrate MCA-[…]-Lys(Dnp)-Lys-NH2, 30 min preincubation at 37 °C; read-out: IC50 Value.
For the compound `Nc1n[nH]c2cccc(-c3ccc(C(=O)NCCNC(=O)c4ccc(Br)cc4)cc3)c12` [Compound V111], the half-inhibitory concentration (IC50) was > 20 µM.
Same read-out and setting: the result for `CCC(=O)Nc1ccc(-c2cccc(C(=O)N[C@@H]3CN[C@H](C(=O)Nc4ccc(Cl)c(C(F)(F)F)c4)C3)c2)cn1` [Compound V139] reads > 20 µM; that for `O=C(c1ccc(-c2cc(Nc3ccc(Cl)cc3Cl)ncn2)cc1)N1CCN(C(=O)c2ccccc2F)CC1` [Compound V159], > 20 µM; that for `Nc1n[nH]c2cccc(-c3ccc(C(=O)N4CCN(C(=O)c5cccc(F)c5)CC4)cc3)c12` [Compound V205], > 20 µM.
Same read-out and setting: the result for `CCN(CC)C(=O)c1cncc(-c2cccc(C(=O)N[C@@H](C(=O)Nc3ccc(Cl)c(C(F)(F)F)c3)C(C)(C)C)c2)c1` [Compound V226] reads > 20 µM.
Turning to `CC(=O)Nc1ccc(-c2ccc(C(=O)N[C@H](C(=O)Nc3ccc(Cl)c(C(F)(F)F)c3)C(C)(C)C)cc2)cn1` [Compound V231], the IC50 was > 20 µM.
On the same count and under the same terms, in the case of `CC(C)(C)OCC(NC(=O)c1ccc(-c2cncc(C(=O)NC3CC3)c2)cc1)C(=O)Nc1ccc(Cl)c(C(F)(F)F)c1` (stereo not shown) [Compound V243] it was > 20 µM.
As for `Nc1n[nH]c2cc(-c3cn([C@@H]4CN[C@H](C(=O)Nc5ccc(Cl)c(C(F)(F)F)c5)C4)nn3)ccc12` [Compound V291], the IC50 worked out at 2.77 ± 0.56 µM.
Same read-out and setting: in the case of `Nc1nc2cc(-c3cn([C@@H]4CN[C@H](C(=O)Nc5ccc(Cl)c(C(F)(F)F)c5)C4)nn3)cnc2s1` [Compound V304] it was > 20 µM.

The values above are taken from PMC10379331, “Identification of a Putative SARS-CoV-2 Main Protease Inhibitor through In Silico Screening of Self-Designed Molecular Library” (International Journal of Molecular Sciences, 2023).
